The results in this text go back to patent US6147100A, “Pyrrolidine derivatives having phospholipase A2 inhibitory activity” (Shionogi & Co., Ltd., priority 1997, dated 2000).

In this assay the target is T1, cPLA2 (Homo sapiens, UniProt P47712).
T1 sequence (P47712 1-749): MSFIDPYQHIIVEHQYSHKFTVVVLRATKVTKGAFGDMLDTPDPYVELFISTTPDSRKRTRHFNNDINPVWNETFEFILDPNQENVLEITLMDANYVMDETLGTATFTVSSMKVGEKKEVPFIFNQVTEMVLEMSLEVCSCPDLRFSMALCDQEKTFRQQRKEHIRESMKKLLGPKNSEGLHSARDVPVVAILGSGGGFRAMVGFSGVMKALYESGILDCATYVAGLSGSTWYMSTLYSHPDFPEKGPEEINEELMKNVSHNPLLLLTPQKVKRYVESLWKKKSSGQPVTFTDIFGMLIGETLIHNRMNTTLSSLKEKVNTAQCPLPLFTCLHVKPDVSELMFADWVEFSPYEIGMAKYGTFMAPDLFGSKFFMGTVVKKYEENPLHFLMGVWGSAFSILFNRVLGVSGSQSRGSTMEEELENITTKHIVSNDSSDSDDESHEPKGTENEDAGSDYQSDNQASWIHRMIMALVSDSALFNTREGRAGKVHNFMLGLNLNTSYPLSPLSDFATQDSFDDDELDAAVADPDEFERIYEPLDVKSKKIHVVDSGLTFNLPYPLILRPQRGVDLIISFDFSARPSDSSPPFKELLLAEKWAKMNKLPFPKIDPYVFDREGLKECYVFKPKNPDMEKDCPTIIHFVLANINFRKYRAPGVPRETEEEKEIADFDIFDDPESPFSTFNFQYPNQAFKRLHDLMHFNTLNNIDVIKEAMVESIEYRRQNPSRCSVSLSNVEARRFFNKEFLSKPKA
The assay is described as follows: cPLA2 Inhibitory Activity. It counts as biochemical. As to conditions: 1-palmitoyl-2-[14C]-arachidonoyl-sn-glycero-3-phosphocholine 2.5 μM, sn-1,2-dioleoylglycerol 1.25 μM; pH 7.5, 15 min at 37° C. Here is the method:
Test Example 1 cPLA2 Inhibitory Activity The compounds of the present invention were tested for the cPLA2 inhibitory activity according to the method disclosed in […]. Roberts, […], and J. E. Putnam, J. Biol. Chem., 1991, 266, 5268-5272 as outlined below. […] The reaction mixture includes 50 mM HEPES buffer (pH 7.5), 1 mM calcium chloride, 150 mM sodium chloride, 0.1 mg/ml bovine serum albumin, and 1.7 mM dithiothreitol. To the reaction mixture was added the compound of the present invention and the substrate solution. The reaction was allowed to start by adding an enzyme and continued for 15 min at 37° C. The fatty acids released by the reaction were extracted by the method described in V. P. Dole, and H. Meinertz, J. Biol. Chem., 1960, 235, 2595-2599 and its radiation activity was measured on a liquid scintillation counter. Control was obtained by conducting the experiment in the same manner except that a compound of the present invention was not added.

Take `O=C1NC(=O)/C(=C/c2ccc(C(=O)NC[C@@H]3C[C@@H](OCc4ccccc4-c4ccccc4)CN3C(=O)CCC(=O)c3ccccc3)cc2)S1` [Compound A-7]: the IC50 is 5000 nM.

`O=C1NC(=O)/C(=C/c2ccc(C(=O)NC[C@@H]3C[C@@H](OCc4ccccc4-c4ccccc4)CN3C(=O)/C=C\C(=O)c3ccccc3)cc2)S1` [Compound A-8] returned an IC50 of 24000 nM.

The molecule `C/C(=C/C(=O)c1ccccc1)C(=O)N1C[C@H](OCc2ccccc2-c2ccccc2)C[C@H]1CNC(=O)c1ccc(/C=C2\SC(=O)NC2=O)cc1` [Compound A-9] showed an IC50 of 5500 nM.

With `CC(=O)Nc1ccccc1C(=O)c1ccccc1C(=O)N1C[C@H](OCc2ccccc2-c2ccccc2)C[C@H]1CNC(=O)c1ccc(/C=C2\SC(=O)NC2=O)cc1` [Compound A-24], the IC50 came to 5800 nM.

As for `Cc1c(CO[C@@H]2C[C@@H](CNC(=O)c3ccc(/C=C4\SC(=O)NC4=O)cc3)N(C(=O)c3ccccc3C(=O)c3ccc(F)cc3)C2)cccc1-c1ccccc1` [Compound A-31], half-maximal inhibition (IC50) required 200 nM.

With `O=C1NC(=O)/C(=C/c2ccc(C(=O)NC[C@@H]3C[C@@H](OCc4cccc(-c5ccc6ccccc6c5)c4)CN3C(=O)c3ccccc3C(=O)c3ccc(F)cc3)cc2)S1` [Compound A-42], the half-inhibitory concentration (IC50) came to 140 nM.

`Nc1cccc(-c2ccccc2CO[C@@H]2C[C@@H](CNC(=O)c3ccc(/C=C4\SC(=O)NC4=O)cc3)N(C(=O)c3ccccc3C(=O)c3ccc(F)cc3)C2)c1` [Compound A-46] showed an IC50 of 150 nM. This IC50 and that of the molecule before are within 1.5-fold of each other.

Molecule `O=C(COc1ccc(/C=C2\SC(=O)NC2=O)cc1)NC[C@@H]1C[C@@H](OCc2ccccc2-c2ccccc2)CN1C(=O)c1ccccc1C(=O)c1ccc(F)cc1` [Compound A-50] had an IC50 of 670 nM.

`O=C1NC(=O)C(CCCc2ccc(C(=O)NC[C@@H]3C[C@@H](OCc4ccccc4-c4ccccc4)CN3C(=O)c3ccccc3C(=O)c3ccc(F)cc3)cc2)S1` (some centres unmarked) [Compound A-51] had an IC50 of 180 nM.

`O=C1NC(=O)/C(=C/c2ccc(C(=O)NC[C@@H]3C[C@@H](OCc4ccccc4-c4ccccc4)CN3C(=O)c3ccccc3C(=O)c3ccc(F)cc3)cc2)O1` [Compound A-54]: half-maximal inhibition (IC50) was put at 140 nM.

`O=C1NC(=O)/C(=C/c2cccc(C(=O)NC[C@@H]3C[C@@H](OCc4ccccc4-c4ccccc4)CN3C(=O)c3ccccc3C(=O)c3ccc(F)cc3)c2)S1` [Compound A-56]: the IC50 was determined as 2500 nM.

Molecule `O=C1NC(=O)/C(=C/c2ccc(C(=O)NC[C@@H]3C[C@@H](OCc4ccccc4-c4ccccc4)CN3C(=O)c3ccccc3C(=O)c3ccc(F)cc3)o2)S1` [Compound A-64] returned an IC50 of 2200 nM.

`O=C(/C=C/C#C/C=C1\SC(=O)NC1=O)NC[C@@H]1C[C@@H](OCc2ccccc2-c2ccccc2)CN1C(=O)c1ccccc1C(=O)c1ccc(F)cc1` [Compound A-66]: the IC50 was found to be 210 nM.

`O=C1NC(=O)/C(=C/c2ccc(C(=O)NC[C@@H]3C[C@@H](Oc4ccc5c6c4CCCN6CCC5)CN3C(=O)c3ccccc3C(=O)c3ccc(F)cc3)cc2)S1` [Compound A-92] gave an IC50 of 57 nM. Against the preceding molecule, the IC50 is about 3.7-fold lower.

The molecule `COc1cccc(-c2cccc(O[C@@H]3C[C@@H](CNC(=O)c4ccc(/C=C5\SC(=O)NC5=O)cc4)N(C(=O)c4ccccc4C(=O)c4ccc(F)cc4)C3)c2)c1` [Compound A-99] displayed an IC50 of 37 nM.

`O=C1NC(=O)/C(=C/c2ccc(C(=O)NC[C@@H]3C[C@@H](Oc4ccccc4-c4cccnc4)CN3C(=O)c3ccccc3C(=O)c3ccc(F)cc3)cc2)S1` [Compound A-105] had an IC50 of 150 nM.

In the case of `O=C1NC(=O)/C(=C/c2ccc(C(=O)NC[C@@H]3C[C@@H](Oc4cccc(-c5cccc(O)c5)c4)CN3C(=O)c3ccccc3C(=O)c3ccc(F)cc3)cc2)S1` [Compound A-106], the IC50 was 200 nM.

In the case of `CCOc1cccc(-c2ccccc2O[C@@H]2C[C@@H](CNC(=O)c3ccc(/C=C4\SC(=O)NC4=O)cc3)N(C(=O)c3ccccc3C(=O)c3ccc(F)cc3)C2)c1` [Compound A-110], the midpoint of inhibition, the IC50, lay at 100 nM. This IC50 is about 2-fold lower than that of the molecule before.

For the molecule `O=C1NC(=O)/C(=C/c2ccc(C(=O)NC[C@@H]3C[C@@H](Oc4ccccc4-c4ccc(-c5ccccc5)cc4)CN3C(=O)c3ccccc3C(=O)c3ccc(F)cc3)cc2)S1` [Compound A-113], the IC50 amounted to 120 nM. The IC50 values of the last two molecules are within 1.5-fold of each other.

`CC(C)c1cccc(-c2cccc3ccccc23)c1O[C@@H]1C[C@@H](CNC(=O)c2ccc(/C=C3\SC(=O)NC3=O)cc2)N(C(=O)c2ccccc2C(=O)c2ccc(F)cc2)C1` [Compound A-114] had an IC50 of 20 nM.

In turn, `CC(C)Oc1ccccc1-c1ccccc1O[C@@H]1C[C@@H](CNC(=O)c2ccc(/C=C3\SC(=O)NC3=O)cc2)N(C(=O)c2ccccc2C(=O)c2ccc(F)cc2)C1` [Compound A-121] gave an IC50 of 65 nM. Compared with the last molecule, the IC50 is about 3.2-fold higher.

`CC(C)Cc1cccc(-c2ccccc2)c1O[C@@H]1C[C@@H](CNC(=O)c2ccc(/C=C3\SC(=O)NC3=O)cc2)N(C(=O)c2ccccc2C(=O)c2ccc(F)cc2)C1` [Compound A-124] came in with an IC50 of 24 nM.

Molecule `CC(C)Cc1cccc(-c2cccc3ccccc23)c1O[C@@H]1C[C@@H](CNC(=O)c2ccc(/C=C3\SC(=O)NC3=O)cc2)N(C(=O)c2ccccc2C(=O)c2ccc(F)cc2)C1` [Compound A-125] returned an IC50 of 6.6 nM. Compared with the last molecule, the IC50 is about 3.6-fold lower.

`CC(C)Cc1cccc(-c2ccccc2C(C)C)c1O[C@@H]1C[C@@H](CNC(=O)c2ccc(/C=C3\SC(=O)NC3=O)cc2)N(C(=O)c2ccccc2C(=O)c2ccc(F)cc2)C1` [Compound A-126]: the IC50 worked out at 5.5 nM.

Take `O=C1NC(=O)C(=CC2CCN(C(=O)[C@@H]3C[C@@H](OCc4ccccc4-c4ccccc4)CN3C(=O)c3ccccc3C(=O)c3ccc(F)cc3)CC2)S1` [Compound B-9]: the IC50 worked out at 14000 nM.

`O=C1NC(=O)/C(=C/c2ccc(/C=C\[C@@H]3C[C@@H](OCc4ccccc4-c4ccccc4)CN3C(=O)c3ccccc3C(=O)c3ccc(F)cc3)s2)S1` [Compound E-6] had an IC50 of 1500 nM.

In turn, `O=C1NC(=S)S/C1=C\c1ccc(/C=C/[C@@H]2C[C@@H](OCc3ccccc3-c3ccccc3)CN2C(=O)c2ccccc2C(=O)c2ccc(F)cc2)s1` [Compound E-7] gave a half-inhibitory concentration (IC50) of 1600 nM.

For the molecule `O=C1NC(=O)/C(=C/c2ccc(/C=C/[C@@H]3C[C@@H](OCc4ccccc4-c4ccccc4)CN3C(=O)c3ccccc3C(=O)c3ccc(F)cc3)s2)S1` [Compound E-8], the IC50 was determined as 1400 nM.

In turn, `O=C1NC(=S)S/C1=C\c1ccc(CCC[C@@H]2C[C@@H](OCc3ccccc3-c3ccccc3)CN2C(=O)c2ccccc2C(=O)c2ccc(F)cc2)cc1` [Compound E-10] came in with an IC50 of 790 nM.

For the molecule `O=C1NC(=S)S/C1=C\c1ccc(/C=C\C[C@@H]2C[C@@H](OCc3ccccc3-c3ccccc3)CN2C(=O)c2ccccc2C(=O)c2ccc(F)cc2)cc1` [Compound E-11], half-maximal inhibition (IC50) was put at 320 nM.

Molecule `O=C1NC(=S)S/C1=C\c1ccc(/C=C/C[C@@H]2C[C@@H](OCc3ccccc3-c3ccccc3)CN2C(=O)c2ccccc2C(=O)c2ccc(F)cc2)cc1` [Compound E-13] gave an IC50 of 77 nM.

In turn, `O=C1NC(=O)/C(=C/c2ccc(C(=O)NCCC[C@@H]3C[C@@H](OCc4ccccc4-c4ccccc4)CN3C(=O)c3ccccc3C(=O)c3ccc(F)cc3)cc2)S1` [Compound F-1] showed an IC50 of 15000 nM.

In turn, `O=C1NC(=O)/C(=C/c2ccc(C(=O)NCC[C@@H]3C[C@@H](OCc4ccccc4-c4ccccc4)CN3C(=O)c3ccccc3C(=O)c3ccc(F)cc3)cc2)S1` [Compound F-2] yielded an IC50 of 4700 nM.

For `CN(Cc1ccc(/C=C2\SC(=S)NC2=O)cc1)C[C@@H]1C[C@@H](OCc2ccccc2-c2ccccc2)CN1C(=O)c1ccccc1C(=O)c1ccc(F)cc1` [Compound G-2], the IC50 turned out to be 5400 nM.

`CN(Cc1ccc(/C=C2\SC(=O)NC2=O)cc1)C[C@@H]1C[C@@H](OCc2ccccc2-c2ccccc2)CN1C(=O)c1ccccc1C(=O)c1ccc(F)cc1` [Compound G-3] returned an IC50 of 3300 nM. This IC50 lies about 1.6-fold lower than the previous one.

`CC(=O)N(Cc1ccc(/C=C2\SC(=S)NC2=O)cc1)C[C@@H]1C[C@@H](OCc2ccccc2-c2ccccc2)CN1C(=O)c1ccccc1C(=O)c1ccc(F)cc1` [Compound G-5] registered an IC50 of 1600 nM. This IC50 lies about 2.1-fold lower than the previous one.

Molecule `CC(=O)N(Cc1ccc(/C=C2\SC(=O)NC2=O)cc1)C[C@@H]1C[C@@H](OCc2ccccc2-c2ccccc2)CN1C(=O)c1ccccc1C(=O)c1ccc(F)cc1` [Compound G-7] had an IC50 of 2800 nM.

As for `O=C1NC(=S)S/C1=C\c1ccc(CN(C[C@@H]2C[C@@H](OCc3ccccc3-c3ccccc3)CN2C(=O)c2ccccc2C(=O)c2ccc(F)cc2)C(=O)c2ccccc2)cc1` [Compound G-8], half-maximal inhibition (IC50) was put at 1100 nM.
